Data: patent publication US4680382A, “Analogues of actinomycin D” (priority 1986, dated 1987)
Where “and” joins values, the source holds several entries; their conditions need not be identical. Equal entries are not always repeated. *1 amine or outer side, *2 acyl side, *3 side chain or, on linkers, in order; H or OH if unused. Where a SMILES comes first, the peptide text is derived from it. Bridges are numbered along the chain shown (N, C = ends). Roman numbers before positions name the chains, in order. [ ]: non-standard residue; d: D form. Actinocin(9to1) = Cc1c2oc3c(C)ccc(C(=O)[*:1])c3nc-2c(C(=O)[*:2])c(N)c1=O; NMeV = CN[C@H](C(=O)O)C(C)C; Sar = CNCC(=O)O

Experiments:
[1] = tested on: liver microsomes; assay: EPR detection of free-radical intermediates with liver microsomes and NADPH (anaerobic); assay type: biochemical; conditions: NADPH, potassium phosphate buffer
Experimental: No free-radical intermediates were detected in the absence of enzyme or substrates.
Melting points are determined on a Thomas-Hoover melting point apparatus at a heating rate of 2° C./min. Thin-layer chromatography was performed on silica gel plates (Brinkmann Instrument Inc.). Solvent systems were (A) EtOAc-acetone (4:1), (B) CHCl3 -MeOH (9:1) and (C) Cifferri, the organic phase of the mixture EtOAc-MeOH-H2 O (20:1:20). High-performance liquid chromatography was carried out on a Varian Model 5020 gradient liquid chromatograph equipped with a CD-111L chromatography data system and fitted with a Varian reversed-phase C18 column with the following solvent systems: I, CH3 CN-5 mM NH4 OAc buffer, pH 6.4 (68:32 isocratic), flow rate 1.5 mL/min; II, 65-95% water-methanol gradient for 70 min, 1 mL/min; III, 10-90% H2 O-MeOH gradient for 120 min, 1 mL/min, with UV-visible variable- and fixed-wavelength dual detectors at 254, 440, 470 and 520 nm. IR spectra were obtained on a Perkin-Elmer Model 237 Infra Cord with KBr micropellets or in chloroform solutions. UV-visible spectra were obtained on a Gilford 250 spectrophorometer, which, with the addition of a base-line reference compensator (Analog Multiplexer 5053) and thermoprogrammer, auto four cell programmer and thermoelectric cell holder 2577, were used to obtain thermal denaturation curves. Specific rotation values were determined in chloroform solutions with a Cary 60 spectropolarimeter. NMR spectra were obtained in a JEOL FQ-90 MHz spectrometer equipped with Fourier transform. EPR spectra analyses were recorded in a Varian E-9 EPR spectrometer. All elemental analyses were within ±0.4%.

[2] = tested on: P388 cells; assay: Inhibition of RNA synthesis (2-[14C]uridine incorporation) in P388 cells; assay type: cell-based, murine; conditions: for IC50: 50% reduction in 1 hr of 2-[14C]uridine incorporation, read-out: IC50 RNA synth; for IC50 DNA/IC50 RNA: ratio
Experimental: Experiments for inhibition of nucleic acid synthesis in tumor cells in vitro were carried out with P388 tumor cells, details of which were reported by Sengupta et al, J. Med. Chem., 18, 1175 (1975). […] AMD-OZLs inhibit either process with equal activity and with the potency of its metabolite 7-hydroxy-AMD.
^b IC50 (RNA) = concentration of inhibitor in μM required to
cause 50% reduction (in 1 hr) in 2[^14 C]uridine incorporation into
acid precipitable material with use of P388 cells.

[3] = tested on: CCRF-CEM human lymphoblastic leukemic cells; assay: In vitro cytotoxicity against CCRF-CEM cells; assay type: cell-based; conditions: 48 hr
Experimental: ^a Human lymphoblastic leukemic cells.
The analogues were tested for their cytotoxicity against tumor cells (time, 48 hr). […] This may be associated with the initial microsomal transformation of the "reverse" analogues to "symmetrical" analogue and/or other alternate bioactive forms (e.g., free-radicals, O2^-), followed by deactivation via formation of conjugates and facile elimination of these from the host. The "reverse" analogues show reduced toxicity in vivo and also the tritiated "reverse" 7a is metabolized in vitro.

[4] = Metabolism of tritiated drugs in tumor cell homogenate (sonicated P388 cells); assay type: in vitro ADME, murine; conditions: tumor cell homogenate (T), 16 hr; for Percent isolated: unconverted: 37° C.
Experimental: A method of using tumor cell sonicates was developed to study the metabolism of the analogues of AMD. By use of sonicated cells, the dilution effects that would occur if flasks of cultured cells were used are avoided. Although the cells are disrupted by this method, their enzyme systems appear to remain active. Large numbers of tumor cells (P388 murine leukemia) were sonicated in Earle's balanced salt solution (EBSS) and were incubated with tritiated AMD and its analogues 7a and 9a (Table II) for 16 hr. In another experiment, the analogues were treated with rat hepatic microsomes at 37° C. for 6 hr in the presence of a NADPH-generating system. The metabolic products were isolated and identified with the following results (Table II). […] In the microsomes, the major metabolites were in unconjugated forms; in the tumor cell homogenates, the major identified metabolites were glucuronide and sulfate conjugated forms. It should be pointed out that in these metabolic experiments, the identification of these glucuronide and/or sulfate conjugates was made only on the basis of the disappearance of the peaks from the HPLC chromatograms upon treatment with deconjugating enzymes glucarase.
A large number of P388 cells (10^8 cells) were sonicated in Earle's balanced salt solution (EBSS) in ice. Tritiated analogues 7a, 8a and AMD, 0.4 Ci/mmol, were added and the mixtures were incubated at 37° C. for 16 hr. Drugs in EBSS without the addition of the cell sonicates served as controls. The samples were treated with urea to bring the urea concentration to 5M. The procedure helped to free all drugs that associated noncovalently with DNA. After 60 min at room temperature, the samples were centrifuged through Amicon 1053 cone filters (molecular weight cut-off approximately 25000) after adjustment of pH to 5 to facilitate extraction of unconjugated metabolites in organic solvents.
Unconjugated or uncoupled products were first extracted with ethyl acetate (step A) and aliquots of aqueous layers were treated with equal volumes of glucarase (a preparation of β-glucuronidase and sulfatase) or with buffer (control); see following section. The glucuronide and the sulfate derivatives were thus deconjugated and the freed products were extracted in ethyl acetate (step B). A highly sensitive technique for detection of a series of AMD analogues using HPLC was employed; sensitivity of this assay ranges from 50 nmol when UV-visible absorbances are used to 1 pmol when radioactive analogues of appropriate specific activities are used.
The products in the ethyl acetate extracts were analyzed by HPLC using system I. Prior to deconjugation, the above aqueous layers were examined by systems II and III, which are more suitable for the water-soluble metabolites.
The aqueous layers from step B were combined with the material which was left as residues in the cones in step A. The residues in the cones were extracted in dilute sodium hydroxide and separated from the cell debris by centrifugation (2500 rpm), and the biopolymers were precipitated from the extract with excess ethanol. The precipitated polymers, mostly protein, were lyophilized and dissolved in 0.05M Tris-HCl and were fractionated on Superfine Sephacryl S-200 and the molecular weights of the major fractions were approximated. The major parts of radioactivity were confined to high molecular weight proteins with molecular weights above 67000. The amount of the tissue-bound material was estimated from the pellets in the above centrifugation (2500 rpm). The percentages were calculated on the basis of the total radioactive materials recovered. In most cases, it was over 90%.

Row | SMILES | free-radical intermediate detected by EPR [1] | IC50 [2] [nM] | IC50 DNA/IC50 RNA [2] | in vitro (CCRF-CEM) ID50 [3] [nM] | Percent isolated: "tissue" bound [4] [%] | Percent isolated: protein conjugates [4] [%] | Percent isolated: unidentified metabolite [4] [%] | Percent metabolite isolated: 4a glucuronide and/or sulfate [4] [%] | Percent metabolite isolated: "symmetrical" AMD (4a) [4] [%] | Percent isolated: unconverted [4] [%] | Percent metabolite isolated: 2a glucuronide and/or sulfate [4] [%] | Percent metabolite isolated: 7-hydroxy-AMD (2a) [4] [%]
1 | Cc1c2oc3c(C)c(O)c(N)c(C(=O)NC4C(=O)NC(C(C)C)C(=O)N5CCCC5C(=O)N(C)CC(=O)N(C)C(C(C)C)C(=O)OC4C)c3nc-2c(C(=O)NC2C(=O)NC(C(C)C)C(=O)N3CCCC3C(=O)N(C)CC(=O)N(C)C(C(C)C)C(=O)OC2C)c(N)c1=O (stereo not shown) [4a, 7-Hydroxy-8-amino-actinomycin D] | Free-radical intermediates were also detected | 1150 | 0.97 | 30 | – | – | – | – | – | – | – | –
2 | Cc1nc2c(C(=O)NC3C(=O)NC(C(C)C)C(=O)N4CCCC4C(=O)N(C)CC(=O)N(C)C(C(C)C)C(=O)OC3C)c3nc4c(C(=O)NC5C(=O)NC(C(C)C)C(=O)N6CCCC6C(=O)N(C)CC(=O)N(C)C(C(C)C)C(=O)OC5C)c(N)c(=O)c(C)c-4oc3c(C)c2o1 [7a, 7-Amino-2,9,11-trimethyl-8H-8-oxooxazolo [4,5-b]phenoxazine 4,6-bis[carbonyl-L-threonyl-D-valyl-L-prolylsarcosyl-L-N-methylvaline-(threonine hydroxyl)] lactone] | Free-radical intermediates were also detected | 90 | 11.22 | 110 | 8.8 | 5.5 | 12.7 | 17.5 | 15.5 | 40 | – | –
3 | Cc1nc2c(C(=O)NC3C(=O)NC(C(C)C)C(=O)N4CCCC4C(=O)N(C)CC(=O)N(C)C(C(C)C)C(=O)OC3C)c3nc4c(C(=O)NC5C(=O)NC(C(C)C)C(=O)N6CCCC6C(=O)N(C)CC(=O)N(C)C(C(C)C)C(=O)OC5C)cc(=O)c(C)c-4oc3c(C)c2o1 (stereo not shown) [9a] | – | – | – | – | 7.5 | 5.5 | 46.3 | – | – | 20 | 12.2 | 8.5
4 | Cc1c2oc3c(C)ccc(C(=O)N[C@@H]4C(=O)N[C@H](C(C)C)C(=O)N5CCC[C@H]5C(=O)N(C)CC(=O)N(C)[C@@H](C(C)C)C(=O)O[C@@H]4C)c3nc-2c(C(=O)N[C@@H]2C(=O)N[C@H](C(C)C)C(=O)N3CCC[C@H]3C(=O)N(C)CC(=O)N(C)[C@@H](C(C)C)C(=O)O[C@@H]2C)c(N)c1=O [AMD, Actinomycin D] (I: T[dV]P[Sar][NMeV] / II: T[dV]P[Sar][NMeV]; ester I:1-I:C, II:1-II:C; linker I:N-II:N via Actinocin(9to1)) | free-radical intermediate with broad resonance peaks was detected | 50 | 22 and 22.40 | 50 | – | – | – | – | – | 100 | – | –
